Data on one substance can be found in patent publication US8846616B1, “Alpha-melanocyte stimulating hormone as topical anti-inflammatory agent for the treatment of allergic contact dermatitis and eczema” (Florida Agricultural and Mechanical University, priority 2009, dated 2014).

Series [1] concerns DNFB-induced allergic contact dermatitis. Nature of the series: Murine allergic contact dermatitis (ACD) model, ear swelling by micrometer. Format: in vivo, mouse. The following applies: concentration of 0.25% α-MSH versus 0.125% and 0.5%; topical formulations including MF21. The method, then: Allergic contact dermatitis was induced as previously described (8, 16). Mice were sensitized on day 0 by applying 25 μL of 0.5% DNFB in 4:1 acetone/olive oil on the shaved abdomen. Mice were challenged on day 5 with a single topical application of 15 μL of 0.2% DNFB in 4:1 acetone/olive oil on the right ear in order to induce an ACD response. The left ears were treated with a single topical application of the matched vehicle alone (4:1 acetone/olive oil) to serve as an internal control for the experiments. Beginning on day 6 (24 hours after challenge), the right ears were treated with 15 μL of topically applied α-MSH formulations or 0.5 mM dexamethasone solution and the left ears of the same mice were topically applied with the corresponding matched vehicle. […] Commercial ointment products were topically applied 20 μL per treatment as measured with a syringe and spread evenly with an applicator stick. […] The ACD response was determined by the degree of ear swelling of the hapten-exposed ear (right) compared to that of the matched vehicle-treated contra-lateral ear (left) before DNFB challenge and at 24, 48, 72, and 96 hours after challenge, as measured with a micrometer (7309, Mitutoyo, Tokyo, Japan). Percent change was determined based on 100% thickness 24 hours after challenge. […]

The nature of series [2]: In vitro skin retention, Franz diffusion cells. Format: in vitro ADME, rat. Particulars: after 24 hours. The protocol:
(§1) In order to determine if the penetration and retention of full-length α-MSH could be augmented in vitro by formulations containing compounds known to improve this process, we conducted in vitro studies with 36 different formulations of α-MSH. The α-MSH powder was weighed directly into a 2 mL graduated glass vial and dissolved in water. Measured volumes of the respective vehicles were dissolved in the solution to achieve the desired percentage (w/v) of α-MSH. Hairless rats were euthanized, skin from the dorsal surface was excised, and the adherent fat and subcutaneous tissue were removed. The skin was mounted on Franz diffusion cells with the stratum corneum facing the donor compartment. The volume of the donor and receptor cells was 2.0 and 5.0 mL, respectively.
For the retention studies, the donor cell was removed, and the excess formulation was removed from the surface of the skin by gently wiping with a cotton swab dipped in 50% ethanol. […] The α-MSH content of each sample was analyzed by HPLC. […]
(§2) Analysis of α-MSH in permeation and retention studies conducted in vitro with skin from hairless rats was performed using an HPLC system (Waters Corp, Milford, Mass.) operated by Millennium software. […] The α-MSH content in the samples was determined using the UV detector set at 230 nm, and the detection limit was determined to be 0.1 μg/mL. […]

In another series the test system is CD3. Nature of the series: Immunohistochemistry of ear tissue in the ACD model, CD3. Particulars: ear tissue after three days of treatment, 96 hours after DNFB challenge. The class given is in vivo, mouse. The protocol:
(§3) Mice examined in the allergic contact dermatitis model were euthanized 96 hours after challenge with DNFB, and the left and right ears were excised. Ears were fixed in alcoholic formalin and embedded in paraffin. Cross-sections were cut through the center of each ear anterior to posterior. Ears were stained using hematoxylin and eosin (H&E). Additionally, the inflammatory markers CD3 and ICAM-1 were stained using rat anti-mouse primary antibodies (0.2 μg/mL and 1.0 μg/mL, respectively) and detected with a mouse-absorbed goat anti-rat'horseradish peroxidase-conjugated secondary antibody (1.0 μg/mL). Endogenous peroxidase activity was blocked with H2O2 before antibody incubations and DAB exposure, and then the marker-stained slides were counterstained with Mayer's hematoxylin blued with dilute ammonium hydroxide. The sections of each ear were photographed at representative sites using a light microscope (Zeiss Axio Imager; Zeiss, Thornwood, N.Y.) with an attached digital camera (Axiocam MRc, Zeiss, Thornwood, N.Y.) operated by Zeiss AxioVision 4.6.
To assay inflammation, ear tissue of the mice was excised 96 hours after challenge with DNFB, fixed in formalin, and embedded in paraffin. […]

In series [3] the test system is DNFB-induced allergic contact dermatitis. Description: Histology (H&E) of ear tissue in the ACD model. The class given is in vivo, mouse. More on the design: key to score of relative inflammation (infiltrate grade): (1+) representing few lymphocytes and eosinophils above baseline levels that are scattered around blood vessels; (2+) representing increased perivascular infiltrate; (3+) representing intense perivascular infiltrate extending slightly into the interstitial collagen between vessels within the papillary dermis; (4+) representing intense diffuse lymphocytic infiltrate throughout the papillary dermis. The following applies: 96 hours after DNFB challenge. The method, then:
as §3
Mice used in the allergic contact dermatitis model were euthanized 96 hours after challenge with DNFB (72 hours after initiation of topical treatment), and the left and right ears were excised, fixed with formalin, and embedded in paraffin. Cross-sections of the middle of each ear (same position) were cut at a thickness of 4 μm and stained with hematoxylin and eosin (H&E). […] Microscopic measurements of thickness were made at 5 equidistant points on each of the photographed H&E sections. All values are expressed as mean±SD. All differences were statistically significant as determined by ANOVA for pair-wise comparison (P<0.05).
Overall, the allergic contact dermatitis hypersensitivity response developed intense perivascular lymphoid infiltrate extending into the papillary dermis with little or no change in the epidermis at 96 hours following challenge. In all samples generally >90% of the inflammatory infiltrate consisted of lymphocytes and <10% consisted of eosinophils. […]

Series [4] is described as follows: In vitro skin permeation, Franz diffusion cells. Format: in vitro ADME, rat. The method, then:
as §1
Permeation of α-MSH in these formulations was measured by applying the formulation (200 μL) on the skin surface in the donor compartment, sealed with aluminum foil and Parafilm®. […] After 24 hours, the receptor compartment was sampled, and α-MSH content was analyzed by HPLC.
as §2

In the case of “Ac-Ser-Tyr-Ser-Met-Glu-His-Phe-Arg-Trp-Gly-Lys-Pro-Val [α-MSH]”, the “reduction in ear swelling, α-MSH dose response” value in series [1] is listed as “optimal reduction in ear swelling”. In addition, the “α-MSH retained per gram of skin (epidermis)” value was 0.4-0.5 mg per gram of skin in series [2] (in aqueous TRANSCUTOL, LABRASOL, or propylene glycol) and 1.8 mg per gram of skin in series [2] (in aqueous ethanol). For the same substance, the “expression of the CD3 marker antigen in the lymphocytic infiltrate” value in the series on CD3 is “greatly reduced”. Further, the “score of relative inflammation (infiltrate grade)” value in series [3] is listed as 1+. Moreover, the “inflammatory (lymphoid) infiltrate in H&E sections” value in series [3] (three days of treatment twice per day) is “relatively low retention of inflammatory infiltrate”. The “ear swelling in H&E sections” value in series [3] (three days of treatment twice per day, FIG. 4) is reported as “complete alleviation of swelling down to slightly below baseline thickness”. In series [4] (aqueous α-MSH in the absence of TRANSCUTOL and NMP, after 24 hours), the “permeation through the skin barrier” value is “did not permeate through the skin barrier at all”. In series [4] (vehicles ethanol, propylene glycol, TRANSCUTOL and LABRASOL (all four), hairless rat skin in vitro), the “α-MSH penetrated through 1.0 cm^2 of skin” value fell in the range of 6.5 to 7.0 µg.
